Experimental data from US9670206B2, “Pyrido[4,3-B]pyrazine-2-carboxamides as neurogenic agents for the treatment of neurodegenerative disorders” (Hoffmann-La Roche Inc., priority 2013, dated 2017).

System: human embryonic stem cell derived neural stem cells (NSCs)
Assay: Neural stem cell proliferation assay (neurogenesis assay, ATP levels by CellTiterGlo)
Assay type: cell-based
Conditions: 96 h, compound concentration at which 150% activity of control (100%) is reached, NSC proliferation, ATP readout after 4 days incubation
Description: Neural Stem Cell Proliferation Assay
Neurogenic properties of small molecules are determined based on the proliferation of human embryonic stem cell derived neural stem cells (NSCs) which were derived via a dual smad inhibition as previously described (Chambers, S. M., et al., Highly efficient neural conversion of human ES and iPS cells by dual inhibition of SMAD signaling, Nature biotechnology, 2009. 27(3): p. 275-80.) Compounds respond is measured by the increase in cells based on ATP levels (Promega:CellTiterGlo®) after an incubation period of 4 days. NSCs are thawed and expanded over 3 passages. On the 14th day, NSCs are seeded in Polyornithin/Laminin coated 384 well plates at a cell density of 21,000 cells/cm^2 in a media volume of 38 μl. 4 hours after cell seeding, compound solutions are added at a volume of 2 μl. Stock solutions of the compounds (water, 5% DMSO) are diluted to obtain a dose response (11 points, dilution factor is 2), ranging from 8 μM to 8 nM. Controls are run to consistently determine the neurogenic properties of the cells: Negative (neutral) control is cell culture Media (final DMSO concentration: 0.25%). Positive controls are: • 1. cell culture Media+100 ng/ml FGF2 (final DMSO concentration: 0.1%) • 2. cell culture Media+20 ng/ml EGF (final DMSO concentration: 0.1%) • 3. cell culture Media+100 ng/ml Wnt3a (final DMSO concentration: 0.1%) After 4 days incubation at 37° C., 5% CO2, the amount of ATP per well is quantified. The ATP concentration is proportional to the cell number. ATP is quantified by using the Promega CellTiterGlo® kit. The CellTiterGlo® reagents contain a cell lysis buffer, a thermo stable luciferase (UltraGlo™ recombinant luciferase), magnesium and luciferin. Luciferin reacts with ATP producing oxyluciferin, AMP and light. The luminescence signal is proportional to the ATP content. The value of negative (neutral) control is determined for each assay plate by taking the average of 16 negative control wells. The neurogenic compound response is calculated for each compound as (compound/Negative Control)*100. The values of EC150 from the dose response curve are determined for each test compound. The EC150 is the compound concentration at which 150% activity of control (100%) is reached.

Structure (SMILES)	EC (150% of control) [µM]
O=C(c1cnc2cncc(-c3cc(C(F)(F)F)ccc3F)c2n1)N1CCC(O)C1 (centres unmarked) [Example 40, (8-(2-Fluoro-5-(trifluoromethyl)phenyl)pyrido[4,3-b]pyrazin-2-yl)(3-hydroxypyrrolidin-1-yl)methanone]	0.93
O=C(c1cnc2cncc(-c3cccc(OC(F)(F)F)c3)c2n1)N1CCC(O)C1 (centres unmarked) [Example 41, (3-Hydroxypyrrolidin-1-yl)(8-(3-(trifluoromethoxy)phenyl)pyrido[4,3-b]pyrazin-2-yl)methanone]	0.6
NC(=O)c1cnc2cncc(N3CCC(F)(F)CC3)c2n1 [Example 42, 8-(4,4-Difluoropiperidin-1-yl)pyrido[4,3-b]pyrazine-2-carboxamide]	0.09
O=C(c1cnc2cncc(-c3ccc(Cl)nc3)c2n1)N1CCC(O)C1 (centres unmarked) [Example 43, (8-(6-Chloropyridin-3-yl)pyrido[4,3-b]pyrazin-2-yl)(3-hydroxypyrrolidin-1-yl)methanone]	0.03
O=C(c1cnc2cncc(-c3ccc(Cl)c(F)c3)c2n1)N1CCC(O)C1 (centres unmarked) [Example 44, (8-(4-Chloro-3-fluorophenyl)pyrido[4,3-b]pyrazin-2-yl)(3-hydroxypyrrolidin-1-yl)methanone]	0.27
O=C(c1cnc2cncc(-c3ccc(C(F)(F)F)cc3F)c2n1)N1CCC(O)C1 (centres unmarked) [Example 45, (8-(2-Fluoro-4-(trifluoromethyl)phenyl)pyrido[4,3-b]pyrazin-2-yl)(3-hydroxypyrrolidin-1-yl)methanone]	1.48
CC(NC(=O)c1cnc2cncc(-c3ccc(Cl)c(F)c3)c2n1)C(C)(C)O (centres unmarked) [Example 46, 8-(4-Chloro-3-fluorophenyl)-N-(3-hydroxy-3-methylbutan-2-yl)pyrido[4,3-b]pyrazine-2-carboxamide]	0.29
CC(NC(=O)c1cnc2cncc(-c3cc(F)c(F)c(F)c3)c2n1)C(C)(C)O (centres unmarked) [Example 47, N-(3-Hydroxy-3-methylbutan-2-yl)-8-(3,4,5-trifluorophenyl)pyrido[4,3-b]pyrazine-2-carboxamide]	0.03
O=C(c1cnc2cncc(-c3ccc(CO)cc3)c2n1)N1CCC(O)C1 (centres unmarked) [Example 48, (8-(4-(Hydroxymethyl)phenyl)pyrido[4,3-b]pyrazin-2-yl)(3-hydroxypyrrolidin-1-yl)methanone]	0.67
CC(NC(=O)c1cnc2cncc(-c3ccnn3C)c2n1)C(C)(C)O (centres unmarked) [Example 49, N-(3-Hydroxy-3-methylbutan-2-yl)-8-(1-methyl-1H-pyrazol-5-yl)pyrido[4,3-b]pyrazine-2-carboxamide]	0.02
Cn1nccc1-c1cncc2ncc(C(N)=O)nc12 [Example 50, 8-(1-Methyl-1H-pyrazol-5-yl)pyrido[4,3-b]pyrazine-2-carboxamide]	0.02
Cc1ccc(-c2cncc3ncc(C(=O)NC(C)C(C)(C)O)nc23)cn1 (centres unmarked) [Example 51, N-(3-Hydroxy-3-methylbutan-2-yl)-8-(6-methylpyridin-3-yl)pyrido[4,3-b]pyrazine-2-carboxamide]	0.08
O=C(c1cnc2cncc(-c3ccc(C(F)(F)F)c(F)c3)c2n1)N1CCC(O)C1 (centres unmarked) [Example 52, (8-(3-Fluoro-4-(trifluoromethyl)phenyl)pyrido[4,3-b]pyrazin-2-yl)(3-hydroxypyrrolidin-1-yl)methanone]	0.07
Cc1cccc(-c2cncc3ncc(C(=O)NC(C)C(C)(C)O)nc23)n1 (centres unmarked) [Example 53, N-(3-Hydroxy-3-methylbutan-2-yl)-8-(6-methylpyridin-2-yl)pyrido[4,3-b]pyrazine-2-carboxamide]	0.5
